This is an account of results in patent US20220354791A1, “MESOPOROUS POLYMERIC PARTICULATE MATERIAL” (Aston University, priority 2019, published 2022).

A short description of the data set: Dissolution testing of IBU-loaded mesoporous particles (USP I rotating basket). The data set is classed as physicochemical. The note with it: after 120 mins; pH 3.0 medium + 0.25% SLS, 900 mL, 37° C., 100 rpm, 50 mg IBU in HPMC capsule. The procedure:
Testing conditions: HCL-NaCl medium pH 3+0.25% SLS, 900 mL, USP apparatus 1 (rotating basket), 100 rpm, HPLC method (mobile phase: pH 3 phosphate buffer:acetonitrile (60:40); column: C18, 15 cm×4.6 mm, 5 μm; flow rate: 2 mL/min; injection volume: 20 μL; detector: UV, 254 nm).
Dissolution testing of IBU-loaded mesoporous particles as prepared in Example 4 was performed by using USP I apparatus (rotating basket, 100 rpm) in an Erweka DT 126 dissolution tester. Samples containing 50 mg of IBU were loaded into a HPMC hard-shell capsule and tested in 900 mL of pH 3.0 medium with 0.25% SLS at 37° C. The pH 3 medium was prepared by dissolving 2 g of sodium chloride and 2.5 g of SLS in 400 mL of deionised water, then adding 0.1 mL of hydrochloric acid 37%, and diluting with deionised water to 1000.0 mL. The concentrations of dissolved IBU were determined using a HPLC method with mobile phase of phosphate buffer pH 3: acetonitrile (60:40), C18 column (15 cm×4.6 mm, 5 μm), flow rate of 2 mL/min, injection volume of 20 μL, and UV detector at 254 nm in an Agilent 1200 HPLC system.

Structures are written as SMILES.

Take `CC(C)Cc1ccc(C(C)C(=O)O)cc1` (stereo not shown) [Ibuprofen raw material, Ibuprofen]: the Ibuprofen dissolved is 73.4%.
